Source: US7893068B2, “Physiologically active substances” (Mercian Corporation, priority 2002, dated 2011)
Like-named read-outs stand apart in the source and are kept apart here.

Legend:
[1] = tested on: WiDr human colon cancer cells; test: Growth inhibitory activities on WiDr human colon cancer cells (MTT); type: cell-based; conditions: 72 h, three days incubation
Procedure: WiDr human colon cancer cells cultured in DULBECCO-modified eagle medium (DMEM; manufactured by SIGMA Co., Ltd.) containing 10% fetal calf serum, penicillin (100 unit/mL) and streptomycin (100 μg/mL) were dispensed in 96-well plates by 2×10^3 cells/well. After culturing overnight in a CO2 incubator, 20 μL of the above-mentioned incubation solution containing the test compound diluted with 3-fold succession was added, followed by incubation. After three days, 50 μL of 3.3 mg/mL MTT solution was added, followed by culturing for further one hour. Then, formazan formed by the reduction by the action of living cells was extracted with 100 μL of DMSO, the absorbance (A540/A660) was determined and was set as the index of the number of living cells.
The concentrations of the compounds of the formula (I) at which the growth of WiDr human colon cancer cells are inhibited 50% were determined.

[2] = Stability in an aqueous solution (HPLC residual ratio); conditions: for Peak area (mAU × sec) after 24 hours / The residual ratios (%): Britton-Robinson's buffer pH 7, 25° C., 24 hours; for Peak area (mAU × sec) initial: Britton-Robinson's buffer pH 7, before incubation
Procedure: The compounds of the formula (I) were dissolved in DMSO in concentrations of 10 to 20 mM, and these were diluted about 500 folds with Britton-Robinson's buffer solution of pH 7. Each of the solutions as sample solutions was incubated at 25° C. for 24 hours.
The sample solutions were analyzed by high performance liquid chromatography before and after incubation, and the residual ratios of the tested substances in the sample solutions after incubation were determined from the peak areas of the obtained chromatograms.

VEGF promoter = test: VEGF transcription-suppressing activity (VEGF promoter-PLAP reporter, U251/1-8 cells, hypoxia); type: cell-based; conditions: Homo sapiens, read-out: VEGF transcription-suppressing activities (IC50: nM)
Source text: In order to prepare reporter system reflecting transcription from VEGF promoter, VEGF promoter sequence was cloned, and inserted in secretory alkaline phosphatase (PLAP) vector to construct reporter vector.
In order to obtain the promoter region of human VEGF, VEGF genomic DNA was cloned from phage library. PCR primers having the sequences described in Sequence Numbers 1 and 2 were designed based on VEGF cDNA (GenBank accession number: X62568) and a fragment having about 340 bp was obtained by carrying out PCR. Human genomic phage library (Human genomic library, Clontech Co.) was screened using this as a probe to obtain VEGF genomic DNA. The DNA was digested by EcoRI, and the resultant fragments were inserted in the EcoRI site of pUC18. Finally, pUC18-VEGFA containing about 5.4 kb of VEGF 5′ flanking region was obtained. The pUC18-VEGFA was digested by KpnI/NheI, VEGF promoter region of about 2.3 kb obtained was inserted in the multi cloning site KpnI/NheI of secretory alkaline phosphatase (PLAP) vector (Goto et al, Mol. Pharmacol., 49, 860-873, 1996), and thus, VEGF-PLAP vector was constructed.
The above-mentioned VEGF-PLAP vector was transfected in the U251 cell cultured in the DULBECCO-modified eagle medium (DMEM; manufactured by SIGMA Co., Ltd.) containing 10% fetal calf serum, and the cells were cultured in the presence of 1 mg/mL G418 (Merck Co.) to establish G418 resistant stable clone (U251/1-8 cell).
It was confirmed that U251/1-8 cell secreted PLAP under hypoxic condition (2% O2 incubator) in the same manner as in the report (Cell. Mol. Biol. Res. 40, 35-39, 1994) and was a reporter system reflecting the transcription from VEGF promoter. The screening of the compound suppressing VEGF production which was induced by hypoxic stimulation was carried out below using the clone.
In order to remove the influence of alkaline phosphates in serum, U251/1-8 cells were rinsed twice with the adequate amount of PBS (Phosphate buffered saline), diluted in the DMEM medium containing 10% of serum in which alkaline phosphates was inactivated by the treatment of 65° C. for 20 min., and dispensed in 96-well plates by 4×10^4 cells/180 μL.
After culturing at 37° C. overnight in a CO2 incubator (5% CO2), 20 μL of the above-mentioned incubation solution containing the test compound diluted with 3-fold succession was added, and then they were incubated in a hypoxic (2% […]) incubator for 18 hours. With respect to the PLAP activity in the culture supernatants, 10 μL of the supernatants was added to 50 μL of 0.28 M Na2CO3—NaHCO3 buffer solution (pH 10.0, 8.0 mM MgSO4), and finally 50 μL of alkaline phosphatase substrate (LUMISTEIN, Genomescience Co.) was added. After reacting for one hour, the alkaline phosphatase activity of the PLAP was measured by detecting the chemical luminescence by a micro plate reader (Perkin-Elmer Co.). The PLAP activity under normoxia was set as 0%, the PLAP activity of cell which was treated under hypoxia was set as 100%, and the concentration suppressing the PLAP activity by 50% was set as the IC50 value of PLAP. The IC50 values of 11107D derivatives shown in Examples were measured, and the IC50 values of representative 11107D derivatives are shown in Table 1.

[3] = tested on: WiDr human colon cancer cells; test: Solid tumor growth inhibitory activities, WiDr human colon tumor model in nude mice; type: in vivo; conditions: Mus musculus, iv, 360 h, read-out: Growth inhibitory activities in the WiDr human solid tumor model (T/C %)
Source text: (§1) In order to study solid tumor growth inhibitory activities of the compounds of the formula (I) in vivo, WiDr human colon cancer cells were implanted subcutaneously into the flanks of nude mice. […]. The animals were grouped so that the average of the volumes of the respective groups became uniform, when it reached about 100 mm^3. Control group was made up of 10 mice and 11107D-administering groups were made up of 5 mice. The derivatives were administered for the administering groups for 5 consecutive days by intravenous injection so as to be any of 0.625 mg, 1.25 mg, 2.5 mg, 5 mg and 10 mg/kg/day, and a vehicle was administered to the control group. The tumor volumes on Day 15 were measured, and relative tumor volume ratios (T/C %) were determined setting the tumor volume of the control group as 100%. The body weights on Day 1, Day 5, Day 8, Day 12 and Day 15 (or 16) were measured, and relative body weight variations were determined setting the body weight on Day 1 as 100%. The relative body weight ratios on the day where the body weight reached the minimum were defined as the minimum relative weight ratios and are shown in Table 3.

[4] = Body weight loss (acute toxicity) in the WiDr tumor model; type: in vivo, nude mice; conditions: Dose 2.5 mg/kg, intravenous 5 consecutive days; body weight relative to Day 1
Source text: as §1

Row | SMILES | IC50 [1] [nM] | Peak area (mAU × sec) after 24 hours [2] [mAU × sec] | The residual ratios (%) [2] [%] | Peak area (mAU × sec) initial [2] [mAU × sec] | IC50 (VEGF promoter; U-251, 18 h) [nM] | response vs control in vivo at 2.5 mg/kg [3] [%] | the minimum relative weight ratios [4] | IC50 (VEGF promoter; U-251, U251/1-8 cells, hypoxic incubator 18 hours, PLAP activity) [nM]
1 | CCC(O)C(C)C1OC1CC(C)(O)/C=C/C=C(\C)C1OC(=O)CC(O)CCC(C)(OC)C(OC(=O)N2C[C@@H]3C[C@H]2CN3CC)/C=C/C1C (stereo in doubt) [Compound 122, (8E,12E,14E)-7-(((1S,4S)-5-Ethyl-2,5-diazabicyclo[2.2.1]heptan-2-yl)carbonyl)oxy-3,16,21-trihydroxy-6-methoxy-6,10,12,16,20-pentamethyl-18,19-epoxytricosa-8,12,14-trien-11-olide] | 1.1 | 4620 | 94.8 | 4872 | 4.4 | – | – | –
2 | CCC(O)C(C)C1OC1CC(C)(O)/C=C/C=C(\C)C1OC(=O)CC(O)CCC(C)(O)C(OC(=O)N2CCN(C)CC2)/C=C/C1C (centres unmarked) [Compound 12, (8E,12E,14E)-3,6,16,21-Tetrahydroxy-6,10,12,16,20-pentamethyl-7-((4-methylpiperazin-1-yl)carbonyl)oxy-18,19-epoxytricosa-8,12,14-trien-11-olide] | – | 5169 | 94.9 | 5450 | 10.2 | 21 | 0.85 | –
3 | CCC(O)C(C)C1OC1CC(C)(O)/C=C/C=C(\C)C1OC(=O)CC(O)CCC(C)(O)C(OC(=O)N(C)C2CCN(C)CC2)/C=C/C1C (centres unmarked) [Compound 15, (8E,12E,14E)-3,6,16,21-Tetrahydroxy-6,10,12,16,20-pentamethyl-7-(N-methyl-N-(1-methylpiperidin-4-yl)carbamoyloxy)-18,19-epoxytricosa-8,12,14-trien-11-olide] | – | – | – | – | – | 36 | 0.82 | –
4 | CCC(O)C(C)C1OC1CC(C)(O)/C=C/C=C(\C)C1OC(=O)CC(O)CCC(C)(O)C(OC(=O)N2CCCN(Cc3ccccc3)CC2)/C=C/C1C (centres unmarked) [Compound 17, (8E,12E,14E)-7-((4-Benzylhomopiperazin-1-yl)carbonyl)oxy-3,6,16,21-tetrahydroxy-6,10,12,16,20-pentamethyl-18,19-epoxytricosa-8,12,14-trien-11-olide] | 2.6 | – | – | – | 3.9 | – | – | –
5 | CCC(O)C(C)C1OC1CC(C)(O)/C=C/C=C(\C)C1OC(=O)CC(O)CCC(C)(O)C(OC(=O)N2CCN(Cc3ccccc3)CC2)/C=C/C1C (centres unmarked) [Compound 24, (8E,12E,14E)-7-((4-Benzylpiperazin-1-yl)carbonyl)oxy-3,6,16,21-tetrahydroxy-6,10,12,16,20-pentamethyl-18,19-epoxytricosa-8,12,14-trien-11-olide] | 5.3 | – | – | – | 5.5 | – | – | –
6 | CCCN1CCN(C(=O)OC2/C=C/C(C)C(/C(C)=C/C=C/C(C)(O)CC3OC3C(C)C(O)CC)OC(=O)CC(O)CCC2(C)O)CC1 (centres unmarked) [Compound 25, (8E,12E,14E)-3,6,16,21-Tetrahydroxy-6,10,12,16,20-pentamethyl-7-((4-propylpiperazin-1-yl)carbonyl)oxy-18,19-epoxytricosa-8,12,14-trien-11-olide] | 1.2 | – | – | – | 2.9 | – | – | –
7 | CCC(O)C(C)C1OC1CC(C)(O)/C=C/C=C(\C)C1OC(=O)CC(O)CCC(C)(O)C(OC(=O)N2CCN(CC3CC3)CC2)/C=C/C1C (centres unmarked) [Compound 27, (8E,12E,14E)-7-((4-(Cyclopropylmethyl)piperazin-1-yl)carbonyl)oxy-3,6,16,21-tetrahydroxy-6,10,12,16,20-pentamethyl-18,19-epoxytricosa-8,12,14-trien-11-olide] | 1.2 | – | – | – | 3.7 | – | – | –
8 | CCC(O)C(C)C1OC1CC(C)(O)/C=C/C=C(\C)C1OC(=O)CC(O)CCC(C)(OC)C(OC(=O)N2CCCN(C3CCCCC3)CC2)/C=C/C1C (centres unmarked) [Compound 95, (8E,12E,14E)-7-((4-Cyclohexylhomopiperazin-1-yl)carbonyl)oxy-3,16,21-trihydroxy-6-methoxy-6,10,12,16,20-pentamethyl-18,19-epoxytricosa-8,12,14-trien-11-olide] | 0.5 | – | – | – | 1.2 | – | – | –
9 | CCOC1(C)CCC(O)CC(=O)OC(/C(C)=C/C=C/C(C)(O)CC2OC2C(C)C(O)CC)C(C)/C=C/C1OC(=O)N1CCN(C)CC1 (centres unmarked) [Compound 127, (8E,12E,14E)-6-Ethoxy-3,16,21-trihydroxy-6,10,12,16,20-pentamethyl-7-((4-methylpiperazin-1-yl)carbonyl)oxy-18,19-epoxytricosa-8,12,14-trien-11-olide] | 0.7 | – | – | – | – | – | – | 2.4
10 | CCC(OC)C(C)C1OC1CC(C)(O)/C=C/C=C(\C)C1OC(=O)CC(O)CCC(C)(O)C(OC(=O)N2CCN(C(C)C)CC2)/C=C/C1C (centres unmarked) [Compound 130, (8E,12E,14E)-3,6,16-Trihydroxy-7-((4-isopropylpiperazin-1-yl)carbonyl)oxy-21-methoxy-6,10,12,16,20-pentamethyl-18,19-epoxytricosa-8,12,14-trien-11-olide] | – | 4583 | 95.1 | 4819 | – | – | – | –
11 | CCC(O)C(C)C1OC1CC(C)(O)/C=C/C=C(\C)C1OC(=O)CC(O)CCC(C)(OC(=O)N2CCCN(CC)CC2)C(OC(C)=O)/C=C/C1C (centres unmarked) [Compound 136, (8E,12E,14E)-7-Acetoxy-6-((4-ethylhomopiperazin-1-yl)carbonyl)oxy-3,16,21-trihydroxy-6,10,12,16,20-pentamethyl-18,19-epoxytricosa-8,12,14-trien-11-olide] | 0.8 | 3579 | 95.4 | 3750 | 1.2 | – | – | –
12 | CCC(O)C(C)C1OC1CC(C)(O)/C=C/C=C(\C)C1OC(=O)CC(O)CCC(C)(O)C(OC(=O)CCc2ccccc2)/C=C/C1C (centres unmarked) [Compound 142, (8E,12E,14E)-3,6,16,21-Tetrahydroxy-6,10,12,16,20-pentamethyl-7-(3-phenylpropanoyl)oxy-18,19-epoxytricosa-8,12,14-trien-11-olide] | 4.9 | 3705 | 94.6 | 3916 | 11.2 | – | – | –
